Test results published in PubChem BioAssay (NCI).
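Following 48 hours of exposure in 96-well plates, responses at five concentrations were used to interpolate endpoints linearly. Here, GI50 denotes the concentration required for 50% inhibition of growth. Definition used: TGI = concentration required for complete inhibition of growth.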

Tests used:
Assay in all cases: growth of human tumour cells (NCI), 48 h
SK-MEL-5 melanoma = tested on: SK-MEL-5 melanoma
SK-MEL-2 melanoma = tested on: SK-MEL-2 melanoma
HCT-116 colon = tested on: HCT-116 colon
OVCAR-5 ovarian = tested on: OVCAR-5 ovarian
RXF 393 renal = tested on: RXF 393 renal
HS 578T breast = tested on: HS 578T breast
LOX IMVI melanoma = tested on: LOX IMVI melanoma
MALME-3M melanoma = tested on: MALME-3M melanoma
TK-10 renal = tested on: TK-10 renal
SNB-75 CNS = tested on: SNB-75 CNS

| SMILES | GI50 (SK-MEL-5 melanoma) [µM] | TGI (SK-MEL-5 melanoma) [µM] | GI50 (SK-MEL-2 melanoma) [µM] | TGI (SK-MEL-2 melanoma) [µM] | GI50 (HCT-116 colon) [µM] | TGI (HCT-116 colon) [µM] | GI50 (OVCAR-5 ovarian) [µM] | TGI (OVCAR-5 ovarian) [µM] | GI50 (RXF 393 renal) [µM] | TGI (RXF 393 renal) [µM] | GI50 (HS 578T breast) [µM] | TGI (HS 578T breast) [µM] | GI50 (LOX IMVI melanoma) [µM] | TGI (LOX IMVI melanoma) [µM] | GI50 (MALME-3M melanoma) [µM] | TGI (MALME-3M melanoma) [µM] | GI50 (TK-10 renal) [µM] | TGI (TK-10 renal) [µM] | GI50 (SNB-75 CNS) [µM] | TGI (SNB-75 CNS) [µM] |
| --- | --- | --- | --- | --- | --- | --- | --- | --- | --- | --- | --- | --- | --- | --- | --- | --- | --- | --- | --- | --- |
| CNC(=O)c1c(NC(=O)c2cccc(C(F)(F)F)c2)sc2c1CCC(=O)C2 | 0.462 | 1.66 | 0.874 | 3.5 | 0.199 | 1.59 | 0.465 | 2.73 | 0.326 | 1.97 | 0.425 | 45.9 | 0.339 | 1.66 | 0.373 | 2.28 | 0.469 | > 40.8 | 0.575 | 5.27 |
| CCOC(=O)c1cc2c(n1Cc1cc(OC)cc(OC)c1)-c1oncc1CCC2 | 0.0528 | 6.22 | 0.038 | > 100 | 0.0588 | > 100 | 0.294 | > 100 | 0.0987 | > 100 | 0.0492 | > 100 | 0.119 | > 100 |  |  |  | > 100 | 0.0276 | > 100 |
| CN(C)/C=C/c1nnnn1-c1ccc(Cl)cc1 | 15 | 35.4 | 13.2 | > 100 | 4.4 | 37.3 | 24.7 | 55.4 | 7.55 | 26.8 | 17.5 | 79.7 | 21.7 | > 100 | 12.8 | 38.7 | 25.4 | 80.4 | 25.1 | > 100 |
| Cc1ccc2c[c]1[Hg][CH2]COS2(=O)=O | 16.7 | 30.3 | 21.4 | 38.4 | 16.6 | 30.2 | 18.7 | 37.4 | 15.9 | 29.3 | 23.7 | 58.1 | 18.5 | 36.4 | 19.8 | 34 | 17.8 | 31.7 | > 100 | > 100 |
| C=C1C(=O)O[C@H]2[C@H]1CC/C(CNS(=O)(=O)c1ccc3ccccc3c1)=C\CC[C@@]1(C)O[C@@H]21 | 2.89 | 9.67 | 2.13 | 5.45 | 0.879 | 2.12 | 1.99 | 4.82 | 1.3 | 2.65 | 4.69 | 29.1 | 1.43 | 2.77 | 1.94 | 4.59 |  |  | 10.5 | 23.6 |
| O=C(Nc1ccc(Cl)cc1)c1cc2c(cc1O)[nH]c1ccccc12 | 1.74 | 3.41 | 2.47 | 6.98 | 2.95 | 10.3 | 3.72 | 16.2 | 5.14 | 20.6 | 3.08 | 14.5 | 3.48 | 13.1 | 2.45 | 5.76 | 2.54 | 6.56 | 3.23 | 8.78 |
| NC1C2C(CC(=O)O)OCC=C3CN4CCC1(C(=O)C(=O)O)C4CC32 (stereo unspecified) |  | > 100 |  | > 100 |  | > 100 |  | > 100 |  | > 100 |  | > 100 |  | > 100 |  | > 100 |  | > 100 |  | > 100 |
| CC/C=C\C/C=C\C[C@H](O)C/C=C1/C(=O)C=C[C@H]1C/C=C\CCC(=O)OC | 1.94 | 6.21 | > 8.25 | > 8.25 | 1.55 | 3.15 | 5 | > 8.25 | 4.99 | > 8.25 | 7.66 | > 8.25 | 1.36 | 2.85 | 2.2 | > 8.25 | > 8.25 | > 8.25 | > 8.25 | > 8.25 |
| COc1cc2c(c(OC)c1OC)-c1ccc(NNC(=S)N(Cc3cccc(C[N+](Cc4cccc(CNC56CC7CC(CC(C7)C5)C6)c4)(Cc4cccc(CNC56CC7CC(CC(C7)C5)C6)c4)Cc4cccc(CN(C(=S)NNc5ccc6c(cc5=O)[C@@H](NC(C)=O)CCc5cc(OC)c(OC)c(OC)c5-6)C56CC7CC(CC(C7)C5)C6)c4)c3)C34CC5CC(CC(C5)C3)C4)c(=O)cc1[C@@H](NC(C)=O)CC2 (stereo partly specified) | 0.81 | 2.25 | 0.861 | 2.76 | 0.896 | 3.07 | 1.17 | 5.03 | 1.7 | 6.65 | 1.22 | 6.76 | 0.873 | 2.86 | 0.83 | 3.04 | 3.66 | 8.34 | 1.4 | 6.68 |
| NC(=O)C(Br)CBr (stereo unspecified) | 4.08 | 14.3 | 2.26 |  | 1.3 | 2.56 | 5.73 | 13.7 | 1.27 | 2.7 | 2.86 | 14.3 | 1.98 | 5.93 | 1.91 | 4.53 | 2.24 | 6.33 | 5.3 | 19.9 |
| CC1=C(C(=O)Nc2ccc3[nH]ncc3c2)C(c2ccc(F)cc2)NC(=O)N1 (stereo unspecified) | > 25 | > 25 | > 25 | > 25 | > 25 | > 25 | > 25 | > 25 | > 14.6 | > 25 | 7.41 | > 25 | > 25 | > 25 | > 25 | > 25 | > 25 | > 25 | 6.51 | > 25 |
| CN(C)c1ccc(C(=O)c2ccc(N(C)C)c(N)c2)cc1N | 2.7 | 34.2 | 4.3 | > 100 | 2.4 | 31.3 | 15.8 | > 100 | 3.76 | 18.4 | 1.75 | > 21.2 | 7.75 | > 100 |  | > 100 | 14.5 | 98.6 | 1.05 | > 23.6 |
| Cc1[nH]c(C(=O)Nc2ccc(C(=O)N3CCNCC3)cc2OC(C)C)c(Cl)c1Cl | 1.73 | 3.13 | 1.97 | 3.79 | 1.85 | 3.41 | 1.79 | 4.04 | 1.59 | 3.25 | 1.74 | 3.91 | 1.77 | 3.25 | 1.59 | 3.05 | 1.8 | 3.32 | 3.31 | 14.1 |
| Cc1nc2cncc(C#Cc3cncc(C(=O)Nc4ccc(CN5CCN(C)CC5)c(C(F)(F)F)c4)c3)c2nc1C | 0.839 | 2.35 | 0.204 | 0.94 | 0.248 | 2.22 | 0.608 | 17.5 | 0.268 | 1.76 | 0.193 | 1.61 | 0.208 | 0.807 | 0.146 | 0.623 | 0.727 | 7 | 0.854 | 3.34 |
| C[N+](C)([O-])CCCNc1c2ccccc2nc2cccc([N+](=O)[O-])c12 |  | 0.327 |  | 0.421 |  | 1.02 |  | 1.57 |  | 0.349 |  | 7.63 |  | 6.59 |  | 0.419 |  | 8.19 |  | 1.4 |
| NS(=O)(=O)c1ccc(C2C3=C(CCCC3=O)OC3=C2C(=O)c2ccccc2C3=O)cc1 (stereo unspecified) | 1.18 | 2.43 | 0.604 | 2.38 | 0.253 | 0.725 | 1.7 | 3.51 | 1.45 | 2.84 | 1.27 | 9.4 | 0.136 | 1.04 | 0.319 | 1.09 | 1.78 | 3.17 | 0.259 | 1.17 |
| COc1cc(C(=O)/C=C/c2c(-c3ccc(F)cc3)nc3sc(C)cn23)cc(OC)c1OC | 0.516 | 1.98 | 5.75 | > 100 | 2.92 | > 100 | > 100 | > 100 | 5.75 | > 100 | 8.29 | > 100 | 2.5 | > 100 | 2.69 | > 100 | 28 | > 100 | 50.1 | > 100 |
| OCCCCC#Cc1ccccc1C#Cc1ccccc1F | 23.6 | 52.3 | 23.9 | 52.5 | 16.2 | 29.9 | 16.2 | 33.3 | 7.63 | 25.6 | 27.5 | 71.9 | 17.4 | 31.6 | 26.1 | 46.9 | 20.8 | 49.7 | > 100 | > 100 |
| COc1ccc(Nc2ccnc(NCCNc3ccnc4cc(Cl)ccc34)n2)cc1 | 1.55 | 2.95 | 2.25 | 4.11 | 0.533 | 3.78 | 1.29 | 7.13 | 1.39 | 3.41 | 2 | 5.91 | 1.44 | 2.96 | 1.93 | 3.87 | 3.33 | 10.5 | 1.17 | 2.52 |
| O=C1c2ccccc2-c2c1c1ccc([N+](=O)[O-])cc1c(=O)n2CCNCCCNCCn1c2c(c3ccc([N+](=O)[O-])cc3c1=O)C(=O)c1ccccc1-2 | 0.347 | 7.51 | 4 | 21.7 | 0.129 | 4.5 | 0.673 | 6.42 | 0.389 | 13.8 | 1.34 | 31.4 | 0.0791 | 2.55 | 0.626 | 30.8 | 1.27 | 22.1 | 0.445 | 2.41 |
| O=S1(=O)N(Cc2ccccc2)[C@@H](Cc2ccccc2)C2O[C@H]2[C@H](Cc2ccccc2)N1Cc1ccccc1 (stereo partly specified) | 1.79 | > 7.5 | > 7.5 | > 7.5 | 0.844 | > 7.5 | > 7.5 | > 7.5 | > 7.5 | > 7.5 | > 7.5 | > 7.5 | 5.38 | > 7.5 | > 7.5 | > 7.5 | 3.9 | > 7.5 | > 7.5 | > 7.5 |
| CN(C)C(=S)NN=C(c1ccccn1)c1ccccn1 | 0.0629 | 3.45 | 0.106 | 4.2 | < 0.01 | 11 | 0.045 | 27.4 | 0.138 | 13.8 |  | > 55.4 | < 0.01 | 11.5 | < 0.0331 | 0.503 | 0.183 | 16.5 | 14.3 | > 81.6 |
| OCc1cccc(-c2ccc3ncc(-c4nc(NC5CC5)ncc4F)n3c2)c1 | 0.275 | 0.821 | 0.244 | 0.671 | 0.182 | > 100 |  |  | 0.139 | 0.356 | 0.212 | 0.701 | 0.118 | 1.21 | 0.375 | 1.06 | 0.3 | > 100 | 0.199 | 0.453 |
| COc1ccc(C(O)c2cc3c(N)c(C(=O)Nc4cccc(Cl)c4C)sc3nc2C)cc1 (stereo unspecified) | 0.874 | 1.58 | 0.909 | 1.84 |  |  | 0.932 | 1.92 | 0.709 | 1.42 | 0.774 | 1.79 | 0.838 | 1.55 | 0.809 | 1.51 | 0.871 | 1.8 | 0.637 | 1.34 |
| CSc1ccc(-c2cc(-c3ccc(NC(=O)CCCN4CCCC4)cc3)nc(-c3ccc(NC(=O)CCCN4CCCC4)cc3)c2)cc1 | 2.74 | 10.7 | 4.58 | 19.2 |  |  | 2.28 | 4.86 | 2.23 | 5.93 | 2.28 | 6.38 | 2.01 | 4.18 | 14 | 42.7 | 4.56 | 17.5 | 1.64 | 4.99 |
